Data taken from patent US10206399B2, “Herbicidal composition comprising uracil compound as active ingredient” (Dongbu Farm Hannong Co., Ltd., priority 2012, dated 2019).
Where two headings read alike, the source gives them in different places.

What was measured:
Echinochloa crus [1] = assay: Paddy field farming herbicidal composition test, plant mortality; format: in vivo
Excerpt: (§1) X is % damage by uracil compound (a) of formula 1 at the rate of application of p kg/ha; Y is % damage by conventional herbicidal compound (b) at the rate of application of q kg/ha; and E is the expected damage caused by compounds (a) and (b) at a rate of application of p and q kg/ha.
(§2) The expected activity for a given combination of two herbicides can be calculated using equation 1 above.

Monochoria vaginalis = assay: as above; format: in vivo
Excerpt: as §1, §2

Echinochloa crus [2] = conditions: Echinochloa crus
Excerpt: as §1, §2

Xanthium spinosum = assay: whole plant or invertebrate
Excerpt: as §1, §2

Abutilon theophrasti [3] = conditions: 20 g/ha; Abutilon theophrasti
Excerpt: as §1, §2

Abutilon theophrasti [4] = assay: whole plant or invertebrate
Excerpt: as §1, §2

Digitaria sanguinalis [5] = conditions: Digitaria sanguinalis
Excerpt: as §1, §2

Aeschynomene indica [6] = assay: whole plant or invertebrate
Excerpt: as §1, §2

Echinochloa crus [7] = assay: Dry field farming herbicidal composition test, plant mortality; format: in vivo
Excerpt: as §1, §2

Digitaria sanguinalis [8] = assay: as above; format: in vivo
Excerpt: as §1, §2

Abutilon theophrasti [9] = assay: Dry field farming herbicidal composition test, plant mortality; format: in vivo
Excerpt: as §1, §2

Aeschynomene indica [10] = assay: as above; format: in vivo
Excerpt: as §1, §2

[11] = Echinochloa, read-out: Echinochloa crus mortality, measured value
[12] = read-out: plant mortality, measured value, 20 g/ha
[13] = read-out: plant mortality, measured value, 40 g/ha
[14] = read-out: plant mortality, measured value, 80 g/ha
[15] = Digitaria sanguinalis, read-out: Digitaria sanguinalis mortality, measured value
[16] = Abutilon theophrasti, read-out: Abutilon theophrasti mortality, measured value
[17] = Aeschynomene indica, read-out: Aeschynomene indica mortality, measured value

COP(=S)(OC)SCC(=O)N(c1ccc(Cl)cc1)C(C)(C)C [Anilofos]
pest or weed control at 75 g/ha (Echinochloa crus [1]; [11]): 50% | pest or weed control at 75 g/ha (Monochoria vaginalis; Pontederia vaginalis, read-out: Monochoria vaginalis mortality (measured value)): 0%

COc1cc(OC)nc(NC(=O)NS(=O)(=O)c2c(-c3nnn(C)n3)cnn2C)n1 [Azimsulfuron]
pest or weed control at 5 g/ha (Echinochloa crus [1]; Echinochloa, 5 g/ha, read-out: Echinochloa crus mortality (measured value)): 30% | pest or weed control at 5 g/ha (Monochoria vaginalis; Pontederia vaginalis, 5 g/ha, read-out: Monochoria vaginalis mortality (measured value)): 50%

CS(=O)(=O)c1ccc(C(=O)C2=C(Sc3ccccc3)C3CCC(C3)C2=O)c(Cl)c1 (stereo not shown) [Benzobicyclon]
Echinochloa crus mortality, measured value (Echinochloa crus [1]; 50 g/ha): 0 | Monochoria vaginalis mortality (measured value) (Monochoria vaginalis; 50 g/ha): 30

C=CCOC(=O)C(C)(C)OC(=O)c1cc(-n2c(=O)cc(C(F)(F)F)n(C)c2=O)ccc1Cl [Butafenacil]
plant mortality, measured value (Echinochloa crus [2]; 4 g/ha): 0 | plant mortality, measured value (Echinochloa crus [2]; 8 g/ha): 0 | plant mortality, measured value (Echinochloa crus [2]; 20 g/ha): 12 | plant mortality, measured value (Echinochloa crus [2]; 40 g/ha): 30 | plant mortality, measured value (Echinochloa crus [2]; 80 g/ha): 53 | pest or weed control at 4 g/ha (Xanthium spinosum; read-out: plant mortality, measured value, 4 g/ha): 15% | pest or weed control at 16 g/ha (Xanthium spinosum; read-out: plant mortality, measured value, 16 g/ha): 54% | pest or weed control at 20 g/ha (Xanthium spinosum; [12]): 42% | pest or weed control at 40 g/ha (Xanthium spinosum; [13]): 90% | pest or weed control at 80 g/ha (Xanthium spinosum; [14]): 100% | plant mortality, measured value (Abutilon theophrasti [3]): 55 | pest or weed control at 20 g/ha (Abutilon theophrasti [4]; [12]): 55% | pest or weed control at 40 g/ha (Abutilon theophrasti [4]; [13]): 94% | pest or weed control at 80 g/ha (Abutilon theophrasti [4]; [14]): 100% | plant mortality, measured value (Digitaria sanguinalis [5]; 4 g/ha): 0 | plant mortality, measured value (Digitaria sanguinalis [5]; 20 g/ha): 12 | plant mortality, measured value (Digitaria sanguinalis [5]; 40 g/ha): 40 | plant mortality, measured value (Digitaria sanguinalis [5]; 80 g/ha): 70 | pest or weed control at 8 g/ha (Aeschynomene indica [6]; read-out: plant mortality, measured value, 8 g/ha): 45% | pest or weed control at 20 g/ha (Aeschynomene indica [6]; [12]): 51% | pest or weed control at 40 g/ha (Aeschynomene indica [6]; [13]): 99% | pest or weed control at 80 g/ha (Aeschynomene indica [6]; [14]): 100%

COc1ncc(F)c2nc(S(=O)(=O)Nc3c(F)cccc3F)nn12 [Florasulam]
Echinochloa crus mortality, measured value (Echinochloa crus [7]; 1 g/ha): 0% | Echinochloa crus mortality, measured value (Echinochloa crus [7]; 2 g/ha): 0% | Echinochloa crus mortality, measured value (Echinochloa crus [7]; 4 g/ha): 0% | Digitaria sanguinalis mortality, measured value (Digitaria sanguinalis [8]; 1 g/ha): 0% | Digitaria sanguinalis mortality, measured value (Digitaria sanguinalis [8]; 2 g/ha): 0% | Digitaria sanguinalis mortality, measured value (Digitaria sanguinalis [8]; 4 g/ha): 0% | Corn mortality, measured value (corn; 1 g/ha): 0 | Corn mortality, measured value (corn; 2 g/ha): 0 | Corn mortality, measured value (corn; 4 g/ha): 0 | Abutilon theophrasti mortality, measured value (Abutilon theophrasti [9]; 1 g/ha): 12 | Abutilon theophrasti mortality, measured value (Abutilon theophrasti [9]; 2 g/ha): 23 | Abutilon theophrasti mortality, measured value (Abutilon theophrasti [9]; 4 g/ha): 54 | Aeschynomene indica mortality, measured value (Aeschynomene indica [10]; 1 g/ha): 8% | Aeschynomene indica mortality, measured value (Aeschynomene indica [10]; 2 g/ha): 18% | Aeschynomene indica mortality, measured value (Aeschynomene indica [10]; 4 g/ha): 46%

CC(C)N(C(=O)COc1nnc(C(F)(F)F)s1)c1ccc(F)cc1 [Flufenacet]
pest or weed control at 87.5 g/ha (Echinochloa crus [7]; [11]): 7% | pest or weed control at 175 g/ha (Echinochloa crus [7]; [11]): 24% | pest or weed control at 350 g/ha (Echinochloa crus [7]; [11]): 50% | pest or weed control at 87.5 g/ha (Digitaria sanguinalis [8]; [15]): 7% | pest or weed control at 175 g/ha (Digitaria sanguinalis [8]; [15]): 22% | pest or weed control at 350 g/ha (Digitaria sanguinalis [8]; [15]): 53% | Corn mortality, measured value (corn; 87.5 g/ha): 0 | Corn mortality, measured value (corn; 175 g/ha): 0 | Corn mortality, measured value (corn; 350 g/ha): 1 | pest or weed control at 87.5 g/ha (Abutilon theophrasti [9]; [16]): 9% | pest or weed control at 175 g/ha (Abutilon theophrasti [9]; [16]): 23% | pest or weed control at 350 g/ha (Abutilon theophrasti [9]; [16]): 46% | pest or weed control at 87.5 g/ha (Aeschynomene indica [10]; [17]): 6% | pest or weed control at 175 g/ha (Aeschynomene indica [10]; [17]): 18% | pest or weed control at 350 g/ha (Aeschynomene indica [10]; [17]): 46%
